Where “and” joins values, the source holds several entries; their conditions need not be identical. Equal values may be shown once. Where a name gives a salt, the structure may show the parent alone. Read-outs that look alike come from different tables or passages of the source. Blank lines part the entries; values can stand above or below the compound they belong to.
Legend:
P. falc = test: Biological activity EC50, P. falc (strain not given); type: cell-based; conditions: Plasmodium falciparum; Target (Cell Line): P. falc
P. falc W2 = test: Biological activity EC50, P. falc W2; type: cell-based; conditions: Plasmodium falciparum
P. falc 3D7 = test: Biological activity EC50, P. falc 3D7; type: cell-based; conditions: Plasmodium falciparum; Target (Cell Line): P. falc 3D7
P. falc DD2 = test: Biological activity EC50, P. falc DD2; type: cell-based; conditions: Plasmodium falciparum; Target (Cell Line): P. falc DD2
P. falc HB3 = test: Biological activity EC50, P. falc HB3; type: cell-based; conditions: Plasmodium falciparum; Target (Cell Line): P. falc HB3
P. falc D10 = test: Biological activity EC50, P. falc D10; type: cell-based, P. falciparum; conditions: Target (Cell Line): P. falc D10
HeLa = test: Biological activity EC50, HeLa; type: cell-based; conditions: Homo sapiens; Target (Cell Line): HeLa
MB-MDA-231 = test: Biological activity EC50, MB-MDA-231; type: cell-based
PC-3 = test: Biological activity EC50, PC-3; type: cell-based; conditions: Homo sapiens; Target (Cell Line): PC-3
MCF-7 = test: Biological activity EC50, MCF-7; type: cell-based; conditions: Homo sapiens, MCF7; Target (Cell Line): MCF-7
U87MG = test: Biological activity EC50, U87MG; type: cell-based; conditions: Homo sapiens, U-87 MG; Target (Cell Line): U87MG
IMR90 = test: Biological activity EC50, IMR90; type: cell-based; conditions: Homo sapiens, IMR-90; Target (Cell Line): IMR90
[1] = Target (Cell Line): P. falc W2, read-out: Activity EC50
[2] = Target (Cell Line): MB-MDA-231, read-out: Activity EC50

Structure (SMILES): CCNC(=O)OC1CCCC2(C1)OOC1(O2)C2CC3CC(C2)CC1C3 (stereo not drawn) [Example 5, dispiro[adamantane-2,2′-[1,3,5]trioxolane-4′,1″-cyclohexane]-3″-yl N-ethylcarbamate]
- EC50 (P. falc W2; [1]): 5.9 nM

Structure (SMILES): O=C(OC1CCCC2(C1)OOC1(O2)C2CC3CC(C2)CC1C3)N1CCCCC1[C@@H](O)c1cc(C(F)(F)F)nc2c(C(F)(F)F)cccc12 (stereo partly drawn) [Example 6, dispiro[adamantane-2,2′-[1,3,5]trioxolane-4′,1″-cyclohexane]-3″-v 2-[(S)-[2,8-bis(trifluoromethyl)quinolin-4-yl](hydroxy)methyl]piperidine-1-carboxylate]
- EC50 (P. falc W2; [1]): 17.1 nM

Structure (SMILES): CCCCN(CCCC)CCC(OC(=O)OC1CCCC2(C1)OOC1(O2)C2CC3CC(C2)CC1C3)c1cc2c(Cl)cc(Cl)cc2c2cc(C(F)(F)F)ccc12 (stereo not drawn) [Example 8, 3-(dibutylamino)-1-[1,3-dichloro-6-(trifluoromethyl)phenanthren-9-yl]propyl dispiro[adamantane-2,2′-[1,3,5]trioxolane-4′,1″-cyclohexane]-3″-yl carbonate]
- EC50 (P. falc 3D7): 21 nM
- EC50 (P. falc DD2): 15 nM
- EC50 (P. falc HB3): 8 nM

Structure (SMILES): COc1ccc(-c2cnnn2-c2cc(OC)c(OC)c(OC)c2)cc1NC(=O)OC1CCCC2(C1)OOC1(O2)C2CC3CC(C2)CC1C3 (stereo not drawn) [Example 11, dispiro[adamantane-2,2′-[1,3,5]trioxolane-4′,1″-cyclohexane]-3″-yl N-{2-methoxy-5-[1-(3,4,5-trimethoxyphenyl)-1H-1,2,3-triazol-5-yl]phenyl}carbamate]
- EC50 (HeLa): 57 nM
- EC50 (MB-MDA-231; [2]): 42 nM
- EC50 (PC-3): 26 nM
- EC50 (P. falc W2; [1]): 34 nM
- EC50 (MCF-7): 24 nM

Structure (SMILES): COc1ccc(-c2cnnn2-c2cc(OC)c(OC)c(OC)c2)cc1NC(=O)OC1CCCC2(C1)OCC1(O2)C2CC3CC(C2)CC1C3 (stereo not drawn) [Example 12, dispiro[adamantane-2,4′-[1,3]dioxolane-2′,1″-cyclohexane]-3″-yl N-{2-methoxy-S-[1-(3,4,5-trimethoxyphenyl)-1H-1,2,3-triazol-5-yl]phenyl}carbamate]
- EC50 (HeLa): > 1000 nM
- EC50 (PC-3): > 1000 nM
- EC50 (P. falc W2; [1]): > 1000 nM
- EC50 (MCF-7): > 1000 nM

Structure (SMILES): COc1ccc(/C=C/C(=O)N2CC(CCl)c3c2cc(NC(=O)OC2CCCC4(C2)OOC2(O4)C4CC5CC(C4)CC2C5)c2ccccc32)cc1 (stereo not drawn) [Example 14, dispiro[adamantane-2,2′-[1,3,5]trioxolane-4′,1″-cyclohexane]-3″-yl N-[1-(chloromethyl)-3-[(2E)-3-(4-methoxyphenyl)prop-2-enoyl]-1H,2H,3H-benzo[e]indol-5-yl]carbamate]
- EC50 (HeLa): 105 nM
- EC50 (U87MG): 40 nM
- EC50 (IMR90): 100 nM
- EC50 (P. falc W2; [1]): 2.8 nM

Structure (SMILES): COc1ccc(/C=C/C(=O)N2CC(CCl)c3c2cc(NC(=O)OC2CCCC4(C2)OCC2(O4)C4CC5CC(C4)CC2C5)c2ccccc32)cc1 (stereo not drawn) [Example 15, dispiro[adamantane-2,4′-[1,3]dioxolane-2′,1″-cyclohexane]-3″-yl N-[1-(chloromethyl)-3-[(2E)-3-(4-methoxyphenyl)prop-2-enoyl]-1H,2H,3H-benzo[e]indol-5-yl]carbamate]
- EC50 (HeLa): > 1000 nM
- EC50 (IMR90): > 1000 nM
- EC50 (P. falc W2; [1]): 41 nM

Structure (SMILES): O=C(Oc1ccc2ccc(=O)oc2c1)OC1CCCC2(C1)OOC1(O2)C2CC3CC(C2)CC1C3 (stereo not drawn) [Example 17, dispiro[adamantane-2,2′-[1,3,5]trioxolane-4′,1″-cyclohexane]-3″-yl 2-oxo-2H-chromen-7-yl carbonate]
- EC50 (P. falc D10; Plasmodium falciparum): 25.3 nM

Structure (SMILES): COc1ccc(C[C@H](NC(=O)OC2CCCC3(C2)OOC2(O3)C3CC4CC(C3)CC2C4)C(=O)N[C@H]2[C@@H](O)[C@H](n3cnc4c(N(C)C)ncnc43)O[C@@H]2CO)cc1 (stereo partly drawn) [Example 22, dispiro[adamantane-2,2′-[1,3,5]trioxolane-4′,1″-cyclohexane]-3″-yl N-[(1S)-1-{[(2S,3S,4R,5R)-5-[6-(dimethylamino)-9H-purin-9-yl]-4-hydroxy-2-(hydroxymethyl)oxolan-3-yl]carbamoyl}-2-(4-methoxyphenyl)ethyl]carbamate]
- EC50 (HeLa): 3210 nM
- EC50 (MB-MDA-231; [2]): 5270 nM
- EC50 (P. falc DD2): 12.7 nM
- EC50 (IMR90): 6980 nM

Structure (SMILES): COC1CCC[C@]2(C1)OOC1(O2)C2CC3CC(C2)CC1C3 (stereo partly drawn) [Example 25]
- EC50 (P. falc W2; [1]): 27 nM

Structure (SMILES): CCCCC(C(=O)COc1c(F)c(F)cc(F)c1F)n1cc(C2(N)CCCCC2)nn1 (stereo not drawn) [Literature Compound A, reference compound]
- EC50 (P. falc D10; Plasmodium falciparum): 70 nM

Structure (SMILES): COc1ccc(-c2cnnn2-c2cc(OC)c(OC)c(OC)c2)cc1N [Literature Compound B, reference compound]
- EC50 (HeLa): 11 nM
- EC50 (MB-MDA-231; read-out: Activity EC50 (nM)): 10 nM
- EC50 (PC-3): 9 nM
- EC50 (P. falc W2; read-out: Activity EC50 (nM)): > 1000 nM
- EC50 (MCF-7): 10 nM

Structure (SMILES): COc1ccc(/C=C/C(=O)N2CC(CCl)c3c2cc(N)c2ccccc32)cc1 (stereo not drawn) [Literature Compound C, reference compound]
- EC50 (HeLa): 11 nM
- EC50 (U87MG): 5 nM
- EC50 (IMR90): 3 nM
- EC50 (P. falc W2; read-out: Activity EC50 (nM)): 0.45 nM

Next, values leading:

- EC50 (P. falc): 147 nM
Structure (SMILES): O=C(Nc1cc(Cl)ccc1Cl)O[C@@H]1C[C@H](OC(=O)Nc2cc(Cl)ccc2Cl)CC2(C1)OOC1(O2)C2CC3CC(C2)CC1C3 (relative stereo) [Example 4, (3″R*,5″S*)-5″-{[(2,5-dichlorophenyl)carbamoyl]oxy}dispiro[adamantane-2,2′-[1,3,5]trioxolane-4′,1″-cyclohexane]-3″-yl N-(2,5-dichlorophenyl)carbamate]

- EC50 (P. falc): 408 nM
Structure (SMILES): O=C1CCCC2(C1)OOC1(O2)C2CC3CC(C2)CC1C3 (stereo not drawn) [Cmpd 2b, dispiro[adamantane-2,2′-[1,3,5]trioxolane-4′,1″-cyclohexane]-3″-one]

- EC50 (P. falc): 14.3 nM
Structure (SMILES): O=C(Nc1cc(Cl)ccc1Cl)OC1CCCC2(C1)OOC1(O2)C2CC3CC(C2)CC1C3 (stereo not drawn) [Example 1, dispiro[adamantane-2,2′-[1,3,5]trioxolane-4′,1″-cyclohexane]-3″-yl N-(2,5-dichlorophenyl)carbamate]

- EC50 (P. falc): 10.7 nM
Structure (SMILES): C=CC1(OC(=O)Nc2cc(Cl)ccc2Cl)CCCC2(C1)OOC1(O2)C2CC3CC(C2)CC1C3 (stereo not drawn) [Example 2, 3″-ethenyldispiro[adamantane-2,2′-[1,3,5]trioxolane-4′,1′-cyclohexane]-3″-yl N-(2,5-dichlorophenyl)carbamate]

- EC50 (P. falc): 65.7 nM
Structure (SMILES): CC(C)(C)[C@H]1C[C@H](OC(=O)Nc2cc(Cl)ccc2Cl)CC2(C1)OOC1(O2)C2CC3CC(C2)CC1C3 (stereo partly drawn) [Example 3, (3″S,5″S)-5″-tert-butyldispiro[adamantane-2,2′-trioxolane-4′,1″-cyclohexane]-3″-yl N-(2,5-dichlorophenyl)carbamate]

- EC50 (P. falc D10; Plasmodium falciparum): 29 nM
- EC50 (P. falc D10): 15.7 nM and 23.3 nM
Structure (SMILES): CCCCC(C(=O)COc1c(F)c(F)cc(F)c1F)n1cc(C2(NC(=O)OC3CCCC4(C3)OOC3(O4)C4CC5CC(C4)CC3C5)CCCCC2)nn1 (stereo not drawn) [Example 9, dispiro[adamantane-2,2′-[1,3,5]trioxolane-4′,1″-cyclohexane]-3″-yl N-(1-{1-[2-oxo-1-(2,3,5,6-tetrafluorophenoxy)heptan-3-yl]-1H-1,2,3-triazol-4-yl}cyclohexyl)carbamate]

- EC50 (P. falc 3D7): 188 nM
- EC50 (P. falc DD2): 188 nM
- EC50 (P. falc HB3): 94 nM
Structure (SMILES): O=C1C(O)=C(C2CCC3(CC2)OOC2(O3)C3CC4CC(C3)CC2C4)C(=O)c2ccccc21 (stereo not drawn) [Example 10, 2-{dispiro[adamantane-2,2′-[1,3,5]trioxolane-4′,1″-cyclohexane]-4″-yl}-3-hydroxy-1,4-dihydronaphthalene-1,4-dione]

- EC50 (HeLa): > 1000 nM
- EC50 (MB-MDA-231; [2]): > 1000 nM
- EC50 (PC-3): > 1000 nM
- EC50 (U87MG): > 1000 nM
- EC50 (P. falc W2; [1]): > 1000 nM
- EC50 (MCF-7): > 1000 nM
Structure (SMILES): COc1ccc(-c2cnnn2-c2cc(OC)c(OC)c(OC)c2)cc1NC(=O)OC1CCCC2(COC3(O2)C2CC4CC(C2)CC3C4)C1 (stereo not drawn) [Example 13, dispiro[adamantane-2,2′-[1,3]dioxolane-4′,1″-cyclohexane]-3″-yl N-{2-methoxy-5-[1-(3,4,5-trimethoxyphenyl)-1H-1,2,3-triazol-5-yl]phenyl}carbamate]

- EC50 (P. falc DD2): 11.4 nM
Structure (SMILES): CN(C)c1cccc2c(S(=O)(=O)NC34CC5CC(C3)C3(OOC6(CCCCC6)O3)C(C5)C4)cccc12 (stereo not drawn) [Example 20, 5-(dimethylamino)-N-{dispiro[adamantane-2,2′-trioxolane-4′,1″-cyclohexane]-7-yl}naphthalene-1-sulfonamide]

- EC50 (P. falc DD2): 54.2 nM
Structure (SMILES): CN(C)c1cccc2c(S(=O)(=O)N3CCC4(CC3)OOC3(O4)C4CC5CC(C4)CC3C5)cccc12 (stereo not drawn) [Example 21, 5-({dispiro[adamantane-2,2′-[1,3,5]trioxolane-4′,4″-piperidine]-1″-yl}sulfonyl)-N,N-dimethylnaphthalen-1-amine]

- EC50 (P. falc W2; [1]): 5 nM
Structure (SMILES): CC(C)(N)CNC(=O)OC1CCCC2(C1)OOC1(O2)C2CC3CC(C2)CC1C3 (stereo not drawn) [Example 23, Dispiro[adamantane-2,2′-[1,3,5]trioxolane-4′,1″-cyclohexane]-3″-yl N-(2-amino-2-methylpropyl)carbamate]

- EC50 (HeLa): 783 nM
- EC50 (MB-MDA-231; [2]): 569 nM
- EC50 (P. falc DD2): 25.3 nM
- EC50 (IMR90): 1700 nM
Structure (SMILES): COc1ccc(C[C@H](N)C(=O)N[C@H]2[C@@H](O)[C@H](n3cnc4c(N(C)C)ncnc43)O[C@@H]2CO)cc1 [Puromycin dihydrochloride, reference compound]

Reference: US11014955B2, “Cyclic peroxides as prodrugs for selective delivery of agents” (THE REGENTS OF THE UNIVERSITY OF CALIFORNIA, priority 2014, dated 2021)
